In patent publication US7557092B2, “Purinergic modulation of smell” (University of Utah Research Foundation, priority 2002, dated 2009):
Several values for one entry are separate records, joined by “and”; a condition that tells them apart may be missing. Equal entries are not always repeated.

Tests used:
P2Y4 = P2Y4 (Homo sapiens, UniProt P51582); conditions: cDNA from Human chromosome X; cited from earlier work
cultured mouse ORNs = assay: confocal calcium imaging of fluo-4 AM loaded cultured ORNs; format: cell-based
[1] = tested on: ORNs in mouse olfactory epithelium slices; assay: confocal calcium imaging of fluo-4 AM loaded olfactory epithelium slices, ORNs; format: cell-based; conditions: 10 μM agonist superfused onto slice
Source text: To study the effects of ATP on odor responses, acutely prepared slices of mouse olfactory epithelium were used. Confocal imaging of fluo-4 AM-loaded olfactory epithelium slices allows simultaneous recording from identified structures within the olfactory epithelium, i.e., both ORNs and sustentacular cells. […] The difference in robustness can be due to poor access to the ATP stimulus: odorant receptors are on the cilia of the ORNs, which extend beyond the outer edge of the olfactory epithelium, whereas purinergic receptors are located deeper within the olfactory epithelium. […] The latency of activation for the ATP-evoked calcium transient was shorter in the ORN (FIG. 3B2, solid up arrowhead) than in sustentacular cells (FIG. 3B3, open down arrowhead). Collectively, this was consistent with ORNs expressing the faster P2X receptors, and the sustentacular cells expressing the slower G-protein coupled P2Y receptors.
(§1) To prepare olfactory epithelium slices, neonatal mice (postnatal day 0-6) were quickly decapitated, and the skin and lower jaw were removed. Tissue was mounted in ice cold Ringers onto a vibratome-cutting block and 300 μm slices were made. Primary cultures of mouse ORNs were made using the same protocol and culture conditions as described for rat olfactory receptor neurons (Vargas and Lucero, 1999a). Briefly, tissue was placed in divalent cation-free Ringers containing 10 mg/ml bovine serum albumin, 1 mg/ml deoxyribonuclease II and 44 U/ml dispase, incubated at 37° C. for 45 min. The tissue was washed, triturated, and filtered through a […] mesh and […] cells were plated onto concanavalin A-coated coverslips and allowed to settle for 20 min. An additional 1.5 ml of culture medium was added (DMEM supplemented with […] ascorbic acid, 1X insulin-transferrin-seleniumX (GIBCO BRL), 2 mM glutamine, 100 U/ml penicillin G and […] streptomycin).
[Ca^2+]i was determined using confocal imaging of fluo-4 AM (18 μM; Molecular Probes) loaded cells and slices. Cells or slices were placed in a laminar flow chamber (Warner Instruments) and perfused continuously with Ringers solution at a flow rate of 1.5-2.0 ml/min. Ringers contained (mM): 140 NaCl, 5 KCl, 1 MgCl2, 2 CaCl2, 10 HEPES, 10 glucose, […] and 400 nM tetrodotoxin. Test solutions were applied using bath exchange and a small volume loop injector (200 μl). A Zeiss LSM 510 confocal laser scanning system was used for data collection and analysis. Time series experiments were performed collecting 1400×700 pixel images at 0.2-0.4 Hz. The fluorometric signals obtained are expressed as relative fluorescence change, ΔF/F═(F−F0)/F0, where F0 is the basal fluorescence level. Increases in F greater than 10% above baseline noise were considered responses.

[2] = tested on: cultured mouse olfactory receptor neurons (ORNs); assay: nystatin perforated-patch voltage-clamp of cultured ORNs; format: cell-based; conditions: 10 μM ATP
Method: The physiological activation of purinergic receptors in cultured mouse ORNs (Vargas and Lucero, 1999a) were examined using both electrophysiology (Danaceau and Lucero, 1998)(FIG. 2A), and calcium imaging (FIG. 2B-E). ATP (10 μM) evoked inward currents in 39% (27/69 ORNs) of the perforated-patched mouse ORNs during brief (1-10 s) applications (FIG. 2A). […] Rapid activation of inward current that closely followed the ATP stimulus profile with little or no desensitization was also observed, indicating involvement of non-desensitizing ionotropic P2X receptors [P2X4 and/or P2X7] (Ralevic and Burnstock, 1998)(FIG. 2A, cell 2) (14/27 cells; latency=81±15 ms, Imax=−235±74 pA). These electrophysiological results support the immunohistochemical evidence of expression of both purinergic receptor subtypes in ORNs.
as §1
The nystatin perforated-patch technique (Horn and Marty, 1988) was used to examine cells under voltage-clamp. Electrodes (2-5 MΩ) were filled with TMA-oxide internal solution (in mM: 62.5 TMA oxide, 62.5 KH2PO4, 15 KCl, 5 MgCl2, 11 EGTA, 10 HEPES, 1 glutathione, 5 TEA, 0.03% pluronic acid F-127, 0.3% DMSO, […] nystatin, pH 7.2, 330 mOsm).

[3] = tested on: odor responses of mouse ORNs in olfactory epithelium slices; assay: co-application of odor and purinergic receptor agonist, calcium transients in olfactory epithelium slices; format: cell-based
[4] = cells with long latent period (P2Y-like), 13/27 cells
[5] = rapidly activating cells (P2X-like), 14/27 cells

Chain of P2Y4 (P51582 whole entry): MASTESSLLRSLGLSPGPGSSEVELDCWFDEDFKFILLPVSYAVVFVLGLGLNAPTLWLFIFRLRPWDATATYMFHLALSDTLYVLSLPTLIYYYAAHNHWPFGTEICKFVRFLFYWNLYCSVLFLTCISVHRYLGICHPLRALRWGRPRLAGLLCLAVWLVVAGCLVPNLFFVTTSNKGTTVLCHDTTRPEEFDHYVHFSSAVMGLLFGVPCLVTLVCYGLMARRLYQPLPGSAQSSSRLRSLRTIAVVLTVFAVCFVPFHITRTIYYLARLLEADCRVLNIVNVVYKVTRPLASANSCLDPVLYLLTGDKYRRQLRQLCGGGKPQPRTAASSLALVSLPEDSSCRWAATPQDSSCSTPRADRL

## Nc1ncnc2c1ncn2[C@@H]1O[C@H](COP(=O)(O)OP(=O)(O)OP(=O)(O)O)[C@@H](O)[C@H]1O [ATP, Adenosine 5′-triphosphate]
P2Y4
  Agonist activity: UTP > UDP (ATP inactive)
Cultured mouse ORNs; 10 μM ATP, 0 Ca2+ + EGTA
  ATP-induced rise in [Ca2+]i in the absence of external Ca2+, larger than in the presence of Ca2+: 31±11%
Cultured mouse ORNs; 10 μM ATP, n=76
  ΔF/F increase in [Ca2+]i, average: 151±12%
  ΔF/F increase in [Ca2+]i, range: 13-398%
Cultured mouse ORNs; Mus musculus, averaged dose-response, maximum % ΔF/F relative to 10 μM ATP, n=58, read-out: EC50 of ATP-induced [Ca2+]i increases
  EC50: 1.6 µM
Cultured mouse ORNs; extracellularly applied ATP
  ORNs with rapid transient increase in [Ca2+]i: 76/84
[1]
  agonist-evoked calcium transients in ORNs: evoked calcium transients from all 11 ORNs
[2]; brief (1-10 s) applications, perforated-patched mouse ORNs, 27/69 ORNs
  ORNs in which ATP evoked inward currents: 39%
[2]; [4]
  Imax: −29±8 pA
  latency of inward current: 1140 ± 236 ms
[2]; [5]
  Imax: −235±74 pA
  latency of inward current: 81 ± 15 ms
[3]; co-application of 10 μM ATP and odor (10 μM n-amyl acetate+10 μM R-carvone)
  odor-responsive cells with a significant decrease in the summed [Ca2+]i increase: 62%
[3]; co-application of 10 μM ATP and odor, n=26
  mean suppression of the summed [Ca2+]i increase: 57±5% and 57%±5%
[3]; co-application of 10 μM ATP and odor, the two ORNs with >20% increase
  mean enhancement of evoked [Ca2+]i increase: 157±34%
